“Also recorded” adds a separate entry of the source. *1 amine or outer side, *2 acyl side, *3 side chain or, on linkers, in order; H or OH if unused. Where a SMILES comes first, the peptide text is derived from it. Bridges are numbered along the chain shown (N, C = ends). Roman numbers before positions name the chains, in order. [ ]: non-standard residue; d: D form. Actinocin(9to1) = Cc1c2oc3c(C)ccc(C(=O)[*:1])c3nc-2c(C(=O)[*:2])c(N)c1=O; NMeV = CN[C@H](C(=O)O)C(C)C; Sar = CNCC(=O)O
What was measured:
Format in all cases: cell-based, human
CXCR4 mRNA = experiment: Northern blot analysis of steady state CXCR4 mRNA levels in HUVEC treated with mediators; details: for CXCR4 mRNA levels (normalized against GAPDH): HUVEC, after 24 hours of treatment
Method: Total RNA (10 μg/lane) was fractionated on 1% agarose-formaldehyde gels, transferred to a nylon membrane (Amersham Corp., Piscataway, N.J.) and covalently linked with a UV crosslinker (Stratagene Inc., La Jolla, Calif.). For Northern analysis, 515-base pair size cDNA probes of CXCR1, CXCR2, CXCR3, CXCR4, CCR1, CCR2 and CCR3, were used. The GAPDH gene probe (Clontech, Palo Alto, Calif.) was used to normalize RNA sample differences in each lane. The probes were labeled with [a-^32P] dCTP using a random-prime labeling kit (Promega Corp., Madison, Wis.), and hybridized overnight at 42° C. in 6X SSC buffer (1X SSC=150 mM NaCL, 15 mM Na Citrate), .1% sodium dodecyl sulfate, 5X Denhardt's solution, 50% formamide, and 100 μg/ml denatured salmon sperm DNA. Membranes were washed with a final stringency of 0.2X SSC at 60° C., and analyzed with a phosphorimager (Molecular Dynamics, Inc., Sunnyvale, Calif.) after exposure at room temperature for 3-5 days. Densitometry was used for quantitative analysis.
CXCR4 transcripts are well expressed in many non-hematopoietic vascular tissues like heart, brain, lung and colon. Federsppiel, et al. Genomics 16: 707-712 (1993). However, at the cellular level, this expression was selective for EC, as indicated by the failure of total RNA from human pulmonary artery smooth muscle cells (HPASMC) to hybridize with the CXCR4 cDNA probe. To understand the regulation of CXCR4 in EC during inflammation, we treated the HUVEC with various mediators and measured its steady state mRNA levels after normalization against the GAPDH cDNA probe.
In order to understand the kinetics of inflammation mediated transcriptional regulation of CXCR4, actinomycin D was used to determine the half-life of CXCR4 mRNA. […] Many cytokines and cytokine receptors, including CXCR4, have A-U rich elements in their untranslated regions that serve as targeting motifs for transcript degradation by specific RNAses. Shaw, et al., Cell 46: 659-667 (1986). In addition to its action as a transcriptional inhibitor, actinomycin D also has the unique and immediate effect of imparting stability to existing transcripts of mRNA undergoing rapid turnover.

HUVEC [1] = experiment: HUVEC migration (chemotaxis) assay, Transwell; details: for effect on EC chemotaxis: HUVEC
Method: HUVEC migration assay was performed using 5×10^5 cells/well (in CS-C medium) in the top chamber of a 6.5 mm diameter, 8-μM pore polycarbonate Transwell culture insert (Costar, Cambridge, Mass.) as reported previously (36). Incubation was carried out at 37° C. in 5% CO2 for 20 hrs. After incubation, migrated cells in the lower chamber were counted with a ZM Coulter counter (Coulter Diagnostics, Hialeah, Fla.). Percent migration was calculated based on the total initial input cells per well.
The Applicant next studied the chemotactic response of EC to SDF-1α. SDF-1α induced a pronounced migration of ˜40% of input EC in a concentration-related manner with an EC50 of 10-20 nM. It is intriguing to observe the high percentage of EC that migrated in response to SDF-1α, even though EC have limited migratory capability in comparison with neutrophils and monocytes. In contrast with other EC chemo-attractants like vitronectin, the chemotactic response to SDF-1α was kinetically robust, and a majority of the migrated cells entered the lower chamber without adhering to the Transwell filter. In these experiments, other chemokines like γ-IP10, IL-8, MIP-1α, MCP-1, eotaxin and RANTES had no effect on EC chemotaxis. Taken together, these observations have obvious biological significance, in that they indicate that SDF-1α plays a role in re-endothelialization after injury, an event that requires the directed migration of EC.

HUVEC [2] = experiment: Measurement of intracellular calcium [Ca2+]i in EC (fura-2); details: for elevation of [Ca+2]i (mobilization of intracellular Ca2+): HUVEC / EC
Method: For measurements of intracellular calcium [Ca^2+]i, EC were loaded with 2 μM fura-2/AM (Molecular Probes, Eugene, OR), rinsed with 1 mM EDTA in Dulbecco's PBS, and resuspended into Kreb's Ringer's Henseleit (KRH) buffer, pH 7.4, containing 0.1% gelatin. Cells (1x 10^6/ml) were stored on ice and diluted for use 1:1 with fresh KRH buffer at 37° C. Fluorescence of fura-2 in cells was measured with a University of Pennsylvania Biomedical Instruments Group dual channel fluorometer. Data was captured as voltage recordings with the aid of a PC and analyzed by Igor version 1.28 software (WaveMetrics, Lake Oswego, Oreg.). Chemokines were added from concentrated stocks in water. To establish the integrity of EC, we also measured [Ca^2+]i stimulated by thrombin.
To determine whether the human EC express a functional CXCR4 receptor, our subsequent studies used SDF-1α along with several other chemokines to assess their ability to induce changes in intracellular levels of Ca^+2 and cause migration. […] In contrast, other chemokines like γ-IP10, IL-8, PF-4, MIP-1α, MCP-1, eotaxin and RANTES had no effect on EC.

Molecule | CXCR4 mRNA levels (normalized against GAPDH) (CXCR4 mRNA) | elevation of [Ca+2]i (mobilization of intracellular Ca2+) (HUVEC [2]) | effect on EC chemotaxis (HUVEC [1]) | further results
TGF-β | no effect | – | – | –
SDF-1α: stromal cell derived factor-1α, polypeptide of SEQ ID NO:4, CXC chemokine ligand of CXCR4; obtained from Gryphon Sciences | – | rapid, though variable elevation; also recorded: induced a rapid mobilization | – | migration, percent of input EC (HUVEC [1]; 20 hrs incubation, Transwell): ~40%; EC50 (HUVEC [1]; concentration-related migration of EC): 10 to 20 nM; concentration of maximal [Ca+2]i response (HUVEC [2]; HUVEC): 100 nM
MCP-1: chemokine from R&D Systems | – | no effect | no effect | –
IFN-γ: recombinant human IFN-γ purchased from Genzyme | decrease | – | – | –
TNF-α | to a lesser extent, TNF-α, caused a decrease | – | – | –
IL-8: chemokine from R&D Systems | – | no effect | no effect | –
γ-IP10: chemokine from R&D Systems | no effect | no effect | no effect | –
IL-1β: recombinant human IL-1β purchased from Genzyme | significant induction | – | – | –
eotaxin: chemokine from R&D Systems | – | no effect | no effect | –
Cc1c2oc3c(C)ccc(C(=O)N[C@@H]4C(=O)N[C@H](C(C)C)C(=O)N5CCC[C@H]5C(=O)N(C)CC(=O)N(C)[C@@H](C(C)C)C(=O)O[C@@H]4C)c3nc-2c(C(=O)N[C@@H]2C(=O)N[C@H](C(C)C)C(=O)N3CCC[C@H]3C(=O)N(C)CC(=O)N(C)[C@@H](C(C)C)C(=O)O[C@@H]2C)c(N)c1=O [actinomycin D] (I: T[dV]P[Sar][NMeV] / II: T[dV]P[Sar][NMeV]; ester I:1-I:C, II:1-II:C; linker I:N-II:N via Actinocin(9to1)) | almost complete abrogation | – | – | steady state levels of CXCR4 mRNA after short term exposure (CXCR4 mRNA; EC cultures, exposure of only 15-30 minutes): sharply increasing
RANTES: chemokine from R&D Systems (protein, UniProt P13501 24-91, looked up) C-C motif chemokine 5: SPYSSDTTPCCFAYIARPLPRAHIKEYFYTSGKCSNPAVVFVTRKNRQVCANPEKKWVREYINSLEMS | – | no effect | no effect | –
PF-4: chemokine from R&D Systems (protein, UniProt P02776 32-101, looked up) Platelet factor 4: EAEEDGDLQCLCVKTTSQVRPRHITSLEVIKAGPHCPTAQLIATLKNGRKICLDLQAPLYKKIIKKLLES | – | no effect | – | –
MIP-1α: chemokine from R&D Systems (protein, UniProt P10147 24-92, looked up) C-C motif chemokine 3: SLAADTPTACCFSYTSRQIPQNFIADYFETSSQCSKPGVIFLTKRSRQVCADPSEEWVQKYVSDLELSA | – | no effect | no effect | –
